From publication PMC6711994 (Scientific Reports, 2019)

Legend:
lsBSH = biological target: T1, lsBSH (Ligilactobacillus salivarius, UniProt J7H3P9); assay: X-ray crystal structure, […] Å, crystal soaking; assay type: binding; details: CA formed from soaked GCA; Cys2 oxidised (sulfonic form); active site of chains B, C, D, E, G and H
T1 construct: recombinant from E. coli JL885 (pBSH vector), purified; initiator Met removed, N-terminal nucleophile Cys2; homotetramer; Cys2 oxidised (sulfonic, OCS) in the crystal
T1 sequence (J7H3P9 entry or part of it): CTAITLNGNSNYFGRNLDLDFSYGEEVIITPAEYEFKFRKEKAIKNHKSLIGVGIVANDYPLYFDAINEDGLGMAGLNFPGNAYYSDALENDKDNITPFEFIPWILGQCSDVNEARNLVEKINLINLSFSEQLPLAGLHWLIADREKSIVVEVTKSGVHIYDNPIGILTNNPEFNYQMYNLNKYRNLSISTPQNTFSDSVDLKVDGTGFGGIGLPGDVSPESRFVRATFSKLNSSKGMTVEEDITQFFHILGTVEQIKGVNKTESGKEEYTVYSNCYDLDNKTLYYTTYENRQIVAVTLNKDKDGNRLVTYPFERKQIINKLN

[1] = biological target: bile salt hydrolase from Lactobacillus salivarius (Lactobacillus salivarius NRRL B-30514); assay: crystal structure; apo lsBSH crystals (20% PEG 3,350, 0.2 M KH2PO4 pH 4.8, 20 °C) soaked with GCA for 4 h; space group P21; two tetramers in one asymmetric unit

stoichiometry N [1]	Compound	X-ray crystal structure, 2.10 Å, crystal soaking (lsBSH)
	C[C@H](CCC(=O)O)[C@H]1CC[C@H]2[C@@H]3[C@H](O)C[C@@H]4C[C@H](O)CC[C@]4(C)[C@H]3C[C@H](O)[C@]12C [CA, cholic acid]	The lsBSH monomers were obtained bound to substrate GCA or product CA
4	bile salt hydrolase from Lactobacillus salivarius (enzyme)	
